Laboratory results as given in patent US4402948A, “Steroid glycoside compounds and methods of use” (Nippon Shinyaku Co., Ltd., priority 1980, dated 1983).
Like-named read-outs stand apart in the source and are kept apart here.

What was measured:
[1] = Acute toxicity (LD50, Litchfield-Wilcoxon method); settings: mouse, in vivo, male mice
Protocol: LD50 values of oxidized derivatives of steryl-β-D-glucoside and acetyl derivatives thereof were calculated by Litchfield-Wilcoxon method using male mice.

[2] = system: hemorrage in mouse's lung; experiment: Capillary stabilizing effects: inhibiting hemorrage in mouse's lung caused by pressure reduction; type: in vivo; settings: pressure reduction to 50±0.5 mmHg/15 sec., score method; for ED50: Mus musculus, oral administration
Protocol: C. Capillary stabilizing effects:
Effects of inhibiting hemorrage in mouse's lung:
Degree of hemorrage in mouse's lung caused by pressure reduction to 50±0.5 mmHg/15 sec. was determined by a method of G. J. Mojovski, et al. [J. Pharm. Exp. Therap., 80, 1, (1944)] (score method). From the inhibition rate calculated as compared with untreated control group, ED50 of the sample was calculated.

[3] = system: bleeding at the end of mouse's tail; experiment: Hemostatic effects: influences on bleeding at the end of mouse's tail; type: in vivo; settings: vs untreated control
Protocol: Influences on bleeding at the end of mouse's tail:
Groups each comprising 10 male mice were employed. According to a method of Motohashi, et al. [Journal of Tokyo Jikei-kai Medical College, 75 (5) (1959)], the end of tail (1 cm) of each mouse was cut out with a sharp surgical knife and the blood threading from the wound into water was observed. A time required until the bleeding stopped completely was measured and rate of readuction of the bleeding time as compared with that of untreated control group was calculated.

[4] = ip, intraperitoneal administration, read-out: LD50 Intraperitoneal administration
[5] = oral administration, read-out: LD50 Oral administration

SMILES	LD50 [1, 4]	LD50 [1, 5]	ED50 [2]	Reduction rate (of bleeding time) ([3]; 0.1 mg/Kg i.p.)	also measured
CCC(CCC(C)C1CCC2C3C(O)C=C4CC(OC5OC(COC(C)=O)C(OC(C)=O)C(OC(C)=O)C5OC(C)=O)CCC4(C)C3CCC12C)C(C)C (centres unmarked) [Compound 12]	> 15000 mg/kg	> 12000 mg/kg			
CCC(CCC(C)C1CCC2C3C(=O)C=C4CC(OC5OC(COC(C)=O)C(OC(C)=O)C(OC(C)=O)C5OC(C)=O)CCC4(C)C3CCC12C)C(C)C (centres unmarked) [Compound 6]			62 mg/kg	22%	
CC(=O)OCC1OC(OC2CCC3(C)C(=CC(=O)C4C3CCC3(C)C(C(C)CCCC(C)C)CCC43)C2)C(OC(C)=O)C(OC(C)=O)C1OC(C)=O [Compound 5, (7-Ketocholesteryl)-2,3,4,6-tetra-0-acetyl-β-D-glucopyranoside]	> 15000 mg/kg	> 12000 mg/kg			
CCC(C=CC(C)C1CCC2C3C(O)C=C4CC(OC5OC(CO)C(O)C(O)C5O)CCC4(C)C3CCC12C)C(C)C (centres unmarked) [Compound 16]	> 15000 mg/kg	> 12000 mg/kg		23%	
CC(C)CCCC(C)C1CCC2C3C(=O)C=C4CC(OC5OC(CO)C(O)C(O)C5O)CCC4(C)C3CCC12C [Compound 8, (7-Ketocholesteryl)-β-D-glucopyranoside]	> 15000 mg/kg	> 12000 mg/kg		36%	
CCC(C=CC(C)C1CCC2C3C(=O)C=C4CC(OC5OC(CO)C(O)C(O)C5O)CCC4(C)C3CCC12C)C(C)C (centres unmarked) [Compound 10]			43 mg/kg		
CC(=O)OCC1OC(OC2CCC3(C)C(=CC(O)C4C3CCC3(C)C(C(C)CCCC(C)C)CCC43)C2)C(OC(C)=O)C(OC(C)=O)C1OC(C)=O [Compound 11, (7-hydroxycholesteryl)-2,3,4,6-tetra-0-acetyl-β-D-glucopyranoside]				18%	
CC(C)CCCC(C)C1CCC2C3C(O)C=C4CC(OC5OC(CO)C(O)C(O)C5O)CCC4(C)C3CCC12C [Compound 14, (7-Hydroxycholesteryl)-β-D-glucopyranoside]			38 mg/kg		
CN1C2=CC(=O)/C(=N\NC(N)=O)C=C2CC1S(=O)(=O)[O-].[Na+] (centres unmarked) [Sodium carbazochromesulfonate, reference compound]					ED50 oral administration [2]: > 400 mg/kg; Reduction rate (of bleeding time) ([3]; 10.0 mg/Kg i.p.): 21%
